Measured values reported in patent publication US20080287481A1, “PROCESS FOR THE PREPARATION OF DES[…] MIXTURES” (priority 2006, published 2008).

Conditions: all storage conditions of the table; consistency in the IR pattern
Excerpt: The term “stable” is used to describe an intimate mixture of desloratadine Form I and Form II that maintains the initial weight ratio of forms during formulation into a pharmaceutical dosage form and thereafter during a commercially useful period of normal storage and use, such as about one year, about 18 months, about two years, or any other desired period. […] Stability testing procedures are well known in the pharmaceutical industry.

Structure (SMILES): Clc1ccc2c(c1)CCc1cccnc1C2=C1CCNCC1 [8-chloro-6,11-dihydro-11-(4-piperidylidene)-5H-benzo[5,6]cyclohepta[1,2-b]pyridine]
- interconversion of forms during the storage period: no interconversion of forms
